How the values were obtained:
[1] = Cytotoxicity against human U2OS cells assessed as growth inhibition after 96 hrs by SRB assay; assay type: functional, cell-based
CDK9/cyclin T1 = CDK9/cyclin T1 (Homo sapiens, UniProt P50750)
[2] = target: Cyclin-dependent kinase 2/cyclin E1 (Homo sapiens, UniProt P24941); test: Inhibition of recombinant full-length human C-terminal His6-tagged CDK2/recombinant full-length human N-terminal GST-tagged cyclin E using fluorescein-QSPKKG-CONH2 as substrate after 60 mins by off-chip mobility shift assay; assay type: protein-complex assay

Sequence of CDK9/cyclin T1 (O60563 whole entry): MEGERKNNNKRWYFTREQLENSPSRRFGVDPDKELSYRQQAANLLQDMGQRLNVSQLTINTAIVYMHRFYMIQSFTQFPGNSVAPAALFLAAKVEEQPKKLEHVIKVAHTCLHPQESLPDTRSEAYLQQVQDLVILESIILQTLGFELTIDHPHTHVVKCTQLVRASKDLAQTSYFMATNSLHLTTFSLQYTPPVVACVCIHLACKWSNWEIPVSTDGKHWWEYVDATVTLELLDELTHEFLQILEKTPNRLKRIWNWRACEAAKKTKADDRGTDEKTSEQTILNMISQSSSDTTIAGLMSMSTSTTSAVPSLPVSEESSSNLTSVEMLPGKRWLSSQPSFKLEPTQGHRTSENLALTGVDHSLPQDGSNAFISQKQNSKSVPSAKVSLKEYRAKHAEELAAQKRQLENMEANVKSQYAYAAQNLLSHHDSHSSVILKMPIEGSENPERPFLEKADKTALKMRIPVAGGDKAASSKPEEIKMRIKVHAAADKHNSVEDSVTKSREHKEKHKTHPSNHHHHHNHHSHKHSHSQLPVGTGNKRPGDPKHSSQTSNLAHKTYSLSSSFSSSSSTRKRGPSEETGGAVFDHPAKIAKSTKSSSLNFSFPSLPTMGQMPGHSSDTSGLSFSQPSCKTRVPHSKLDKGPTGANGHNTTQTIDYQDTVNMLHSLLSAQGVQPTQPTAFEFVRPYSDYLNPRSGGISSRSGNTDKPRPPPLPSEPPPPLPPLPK
Sequence of CDK9/cyclin T1 (P50750 whole entry): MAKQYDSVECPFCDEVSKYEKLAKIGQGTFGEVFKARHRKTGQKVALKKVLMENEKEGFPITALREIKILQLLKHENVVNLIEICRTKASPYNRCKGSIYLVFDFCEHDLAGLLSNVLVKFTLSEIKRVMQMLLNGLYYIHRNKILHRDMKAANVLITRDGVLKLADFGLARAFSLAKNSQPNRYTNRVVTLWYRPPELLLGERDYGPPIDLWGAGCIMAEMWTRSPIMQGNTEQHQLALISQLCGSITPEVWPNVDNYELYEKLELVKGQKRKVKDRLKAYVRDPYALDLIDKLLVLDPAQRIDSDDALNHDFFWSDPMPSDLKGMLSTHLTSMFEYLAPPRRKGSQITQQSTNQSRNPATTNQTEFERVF

Row | SMILES | IC50 [1] [nM] | IC50 (CDK9/cyclin T1) [nM] | IC50 [2] [nM]
1 | c1cnc2ncn(-c3cc(Nc4ccc(OCCN5CCCCC5)cn4)ncn3)c2c1 | 5 | 3 | 
2 | Cc1c(Nc2ccc(OCCN(C)C)cn2)ncnc1-n1cnc2ccccc21 |  |  | 65800
